melting point: 59 °C
Structure (SMILES): CO/C=C(/C(=O)OC)c1ccccc1COc1nc(C(F)(F)F)sc1C
